Test [1] deals with RTV-268 patient virus (RT P236L with M41L, D67N, M184V, L210W, T215Y, K219Q). Kind of test: Phenotypic susceptibility assay, RTV-268 (patient 97-268). The note with it: RTV-268 patient virus compared to reference virus. Format: cell-based, HIV-1. As to the method: Resistance tests were carried out with resistance test vectors using two host cell types. Resistance test vector viral particles were produced by a first host cell (the resistance test vector host cell) that was prepared by transfecting a packaging host cell with the resistance test vector and the packaging expression vector. The resistance test vector viral particles were then used to infect a second host cell (the target host cell) in which the expression of the indicator gene is measured.
The resistance test vectors containing a functional luciferase gene cassette were constructed and host cells were transfected with the resistance test vector DNA. The resistant test vectors contained patient-derived reverse transcriptase and protease sequences that were either susceptible or resistant to the antiretroviral agents, such as nucleoside reverse transcriptase inhibitors, non-nucleoside reverse transcriptase inhibitors and protease inhibitors. The resistance test vector viral particles produced by transfecting the resistance test vector DNA into host cells, either in the presence or absence of protease inhibitors, were used to infect target host cells grown either in the absence of NRTI or NNRTI or in the presence of increasing concentrations of the drug. The amount of luciferase activity produced in infected target host cells in the presence of drug was compared to the amount of luciferase produced in infected target host cells in the absence of drug. Drug resistance was measured as the amount of drug required to inhibit by 50% the luciferase activity detected in the absence of drug (inhibitory concentration 50%, IC50). The IC50 values were determined by plotting percent drug inhibition vs. log10 drug concentration.
Host cells were seeded in 10-cm-diameter dishes and were transfected several days after plating with resistance test vector plasmid DNA and the envelope expression vector. Transfections were performed using a calcium-phosphate precipitation procedure. The cell culture media containing the DNA precipitate was replaced with fresh medium, from one to 24 hours, after transfection. Cell culture media containing resistance test vector viral particles was harvested one to four days after transfection and was passed through a […] filter before being stored at −80° C. HIV capsid protein (p24) levels in the harvested cell culture media were determined by an EIA method as described by the manufacturer (SIAC; Frederick, Md.). Before infection, target cells (293 and 293/T) were plated in cell culture media. Control infections were performed using cell culture media from mock transfections (no DNA) or transfections containing the resistance test vector plasmid DNA without the envelope expression plasmid. One to three or more days after infection the media was removed and cell lysis buffer (Promega) was added to each well. […] The inhibitory effect of the drug was determined using the following equation: % luciferase inhibition=1-(RLUluc[drug]÷RLUluc)×100 where RLUluc [drug] is the relative light unit of luciferase activity in infected cells in the presence of drug and RLUluc is the Relative Light Unit of luciferase activity in infected cells in the absence of drug. IC50 values were obtained from the sigmoidal curves that were generated from the data by plotting the percent inhibition of luciferase activity vs. the log10 drug concentration.
A resistance test vector was constructed as described in Example 1 from a patient sample designated 97-268. […] Isolation of viral RNA and RT/PCR was used to generate a patient derived segment that comprised viral sequences coding for all of PR and amino acids 1-313 of RT. The patient derived segment was inserted into a indicator gene viral vector to generate a resistance test vector designated RTV-268.

Test [2] has as its system Tyr181Cys (Y181C) mutation of HIV RT. The note with it: cited from earlier work.
Test [3] deals with T66I integrase site-directed mutant. Kind of test: Phenotypic susceptibility assay, integrase T66I mutated resistance test vector. Format: cell-based, HIV. The conditions noted are these: T66I integrase mutant, FIG. 10. As to the method:
Transfections were performed using a calcium-phosphate precipitation procedure. […] Cell lysates were assayed for luciferase activity (FIG. 3). […] The drug inhibition curves are shown in (FIG. 3).
A resistance test vector containing the threonine to isoleucine mutation at position 66 of the integrase protein (T66I) was constructed and tested using the phenotypic assay described earlier.

Consider `Nc1ccn([C@@H]2CS[C@H](CO)O2)c(=O)n1` [3TC], for which the “change in susceptibility / resistance” value in test [1] is on record as “significant resistance”. Same read-out and setting: the result for `Cc1cn([C@H]2C[C@H](N=[N+]=[N-])[C@@H](CO)O2)c(=O)[nH]c1=O` [AZT] reads “significant resistance”. On to `CCc1cc(CCc2nc3ccccc3o2)c(=O)[nH]c1C` [L-696,229], for which, in test [2], the “change in susceptibility” value is recorded as “reduced susceptibility”. With `CCc1cc(NCc2nc3c(Cl)ccc(Cl)c3o2)c(O)nc1C` [L-697,661], the “change in susceptibility” value in test [2] was “reduced susceptibility”.

Consider `O=C(O)C(=O)CC(=O)c1cccn1Cc1ccc(F)cc1` [L-731,988], for which, in test [3], the “reduction in susceptibility compared to wild type control RTV” value is given as 4.7 fold.

For the compound `Cc1cn([C@H]2C=C[C@@H](CO)O2)c(=O)[nH]c1=O` [d4T], in test [1], the “change in susceptibility / resistance” value is on record as “slight shifts in susceptibility”. On the same count and under the same terms, the result for `Nc1ccn([C@H]2CC[C@@H](CO)O2)c(=O)n1` [ddC] reads “slight shifts in susceptibility”. The same measure, in the same setting: the result for `O=c1[nH]cnc2c1ncn2[C@H]1CC[C@@H](CO)O1` [ddI] reads “slight shifts in susceptibility”.

(Values after US20050130134A1, “Means and methods for monitoring non-nucleoside reverse transcriptase inhibitor antiretroviral therapy and guiding therapeutic decisions in the treatment HIV-AIDS” (ViroLogic, Inc., priority 2000, published 2005).)
